Source: ChEMBL document CHEMBL5537174, “Discovery of Potent SOS1 PROTACs with Effective Antitumor Activities against NCI-H358 Tumor Cells In Vitro/In Vivo” (J Med Chem, 2024)

How the values were obtained:
NCI-H358 = assay: Antiproliferative activity against human NCI-H358 cells assessed as inhibition of cell proliferation incubated for 7 days by celltiter-glo 3D assay; type: functional, cell-based; settings: NCI-H358, 168 h
[1] = target: Protein cereblon/Son of sevenless homolog 1 (Homo sapiens, UniProt Q07889+Q96SW2); assay: PROTAC activity at CRBN/SOS1 in human NCI-H358 cells assessed as induction of SOS1 degradation incubated for 6 hrs by Western blotting analysis; type: cell-based
Sequence of Protein cereblon/Son of sevenless homolog 1 (Q07889 whole entry): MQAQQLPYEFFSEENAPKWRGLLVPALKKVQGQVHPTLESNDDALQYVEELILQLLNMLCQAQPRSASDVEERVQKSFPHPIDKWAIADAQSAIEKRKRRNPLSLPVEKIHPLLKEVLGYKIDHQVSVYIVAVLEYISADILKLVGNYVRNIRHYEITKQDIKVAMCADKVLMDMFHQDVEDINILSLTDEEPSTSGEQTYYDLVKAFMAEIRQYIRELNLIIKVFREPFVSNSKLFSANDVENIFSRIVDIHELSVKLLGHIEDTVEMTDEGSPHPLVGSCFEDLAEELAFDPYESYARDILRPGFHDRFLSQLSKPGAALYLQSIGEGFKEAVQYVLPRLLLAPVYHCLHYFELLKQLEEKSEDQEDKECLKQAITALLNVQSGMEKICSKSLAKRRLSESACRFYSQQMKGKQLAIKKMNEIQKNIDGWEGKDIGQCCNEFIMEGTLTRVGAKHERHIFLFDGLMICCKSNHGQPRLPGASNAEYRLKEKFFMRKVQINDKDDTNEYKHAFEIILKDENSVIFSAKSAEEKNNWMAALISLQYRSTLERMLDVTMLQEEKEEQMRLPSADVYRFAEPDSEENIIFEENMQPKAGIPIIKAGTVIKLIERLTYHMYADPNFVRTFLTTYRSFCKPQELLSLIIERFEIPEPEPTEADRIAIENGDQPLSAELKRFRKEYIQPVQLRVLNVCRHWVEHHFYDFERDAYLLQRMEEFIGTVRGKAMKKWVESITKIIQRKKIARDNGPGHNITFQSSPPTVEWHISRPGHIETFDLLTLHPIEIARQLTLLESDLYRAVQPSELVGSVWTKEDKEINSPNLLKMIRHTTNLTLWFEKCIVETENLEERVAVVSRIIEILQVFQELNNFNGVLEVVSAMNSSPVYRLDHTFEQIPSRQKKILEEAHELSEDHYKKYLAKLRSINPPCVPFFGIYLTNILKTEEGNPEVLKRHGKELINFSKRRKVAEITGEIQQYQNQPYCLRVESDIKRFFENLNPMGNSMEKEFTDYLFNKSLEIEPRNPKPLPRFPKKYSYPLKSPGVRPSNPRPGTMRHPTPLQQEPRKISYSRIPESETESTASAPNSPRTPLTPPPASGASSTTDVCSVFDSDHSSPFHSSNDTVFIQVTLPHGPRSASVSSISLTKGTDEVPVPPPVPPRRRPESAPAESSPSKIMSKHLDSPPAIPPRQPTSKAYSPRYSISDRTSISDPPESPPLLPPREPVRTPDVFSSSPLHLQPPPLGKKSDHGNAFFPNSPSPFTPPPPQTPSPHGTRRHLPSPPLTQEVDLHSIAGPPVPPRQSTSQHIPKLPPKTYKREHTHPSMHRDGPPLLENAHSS
Sequence of Protein cereblon/Son of sevenless homolog 1 (Q96SW2 whole entry): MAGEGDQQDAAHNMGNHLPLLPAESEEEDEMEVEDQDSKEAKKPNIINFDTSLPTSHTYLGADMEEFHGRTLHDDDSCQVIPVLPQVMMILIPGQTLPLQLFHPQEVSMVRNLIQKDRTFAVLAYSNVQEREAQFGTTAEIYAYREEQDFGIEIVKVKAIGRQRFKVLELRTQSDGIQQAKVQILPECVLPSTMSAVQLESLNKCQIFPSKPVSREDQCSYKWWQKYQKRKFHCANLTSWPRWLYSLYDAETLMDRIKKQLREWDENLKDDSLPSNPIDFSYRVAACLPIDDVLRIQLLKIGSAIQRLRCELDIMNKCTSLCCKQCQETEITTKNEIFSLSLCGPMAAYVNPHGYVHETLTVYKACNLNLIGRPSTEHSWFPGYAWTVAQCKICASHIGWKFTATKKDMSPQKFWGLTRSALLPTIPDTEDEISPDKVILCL

Row | Compound | IC50 (NCI-H358) | DC50 ([1]; read-out: DC50) | DC50 [1]
1 | COc1cc2nc(C)nc(N[C@H](C)c3cc(N)cc(C(F)(F)F)c3)c2cc1OCC1(CN(C)C(=O)CCCOC2CCC(Nc3cccc4c3C(=O)N(C3CCC(=O)NC3=O)C4=O)CC2)CC1 (some centres not stated) | 15 nM | 35 nM | 
2 | COc1cc2nc(C)nc(N[C@H](C)c3cc(N)cc(C(F)(F)F)c3)c2cc1OCC1(CN(C)C(=O)CCCCCCNc2ccc3c(c2F)C(=O)N(C2CCC(=O)NC2=O)C3=O)CC1 (some centres not stated) | 4180 nM |  | 
3 | COc1cc2nc(C)nc(N[C@H](C)c3cc(N)cc(C(F)F)c3)c2cc1OCC1(CN(C)C(=O)CCCCCCNc2cccc3c2C(=O)N(C2CCC(=O)NC2=O)C3=O)CC1 (some centres not stated) | 16 nM | 45 nM | 
4 | COc1cc2nc(C)nc(N[C@H](C)c3cc(N)cc(C(F)(F)F)c3)c2cc1OCC1(CN(C)C(=O)CCOCCC#Cc2cccc3c2C(=O)N(C2CCC(=O)NC2=O)C3=O)CC1 (some centres not stated) | 1140 nM |  | 
5 | COc1cc2nc(C)nc(N[C@H](C)c3cc(N)cc(C(F)(F)F)c3)c2cc1OCC1(CN(C)C(=O)C2CCC(NC3CCN(c4ccc5c(c4)C(=O)N(C4CCC(=O)NC4=O)C5=O)CC3)CC2)CC1 (some centres not stated) | 513 nM |  | 
6 | COc1cc2nc(C)nc(N[C@H](C)c3cccc(C#N)c3C)c2cc1OCC1(CN(C)C(=O)CCCCCCNc2cccc3c2C(=O)N(C2CCC(=O)NC2=O)C3=O)CC1 (some centres not stated) | 2050 nM |  | 
7 | COc1cc2nc(C)nc(N[C@H](C)c3cc(N)cc(C(F)(F)F)c3)c2cc1OCC1(CN(C)C(=O)C2CCC(OC3CCN(c4ccc5c(c4)C(=O)N(C4CCC(=O)NC4=O)C5=O)CC3)CC2)CC1 (some centres not stated) | 733 nM |  | 
8 | COc1cc2nc(C)nc(N[C@H](C)c3cc(N)cc(C(F)(F)F)c3)c2cc1OCC1(CN(C)C(=O)CCCCCCNc2nccc3c2C(=O)N(C2CCC(=O)NC2=O)C3=O)CC1 (some centres not stated) | 318 nM |  | 
9 | O=C(O)CCCCCCNc1cccc2c1C(=O)N(C1CCC(=O)NC1=O)C2=O (configuration not stated) |  |  | Not Active
10 | COc1cc2nc(C)nc(N[C@H](C)c3cc(N)cc(C(F)(F)F)c3)c2cc1OCC1(CN(C)C(=O)CCCCCCNc2ccc3c(c2)C(=O)N(C2CCC(=O)NC2=O)C3=O)CC1 (some centres not stated) | 799 nM |  | 
11 | COc1cc2nc(C)nc(N[C@H](C)c3cc(N)cc(C(F)(F)F)c3)c2cc1OCC1(CN(C)C(=O)CN2CCN(C3CCN(c4ccc5c(c4)C(=O)N(C4CCC(=O)NC4=O)C5=O)CC3)CC2)CC1 (some centres not stated) | 928 nM |  | 
12 | COc1cc2nc(C)nc(N[C@H](C)c3cc(N)cc(C(F)(F)F)c3)c2cc1OCC1(CN(C)C(=O)CCCN(C)C2CCC(Nc3cccc4c3C(=O)N(C3CCC(=O)NC3=O)C4=O)CC2)CC1 (some centres not stated) | 814 nM |  | 
13 | COc1cc2nc(C)nc(N[C@H](C)c3cc(N)cc(C(F)(F)F)c3)c2cc1OCC1(CN(C)C(=O)COCCCCNc2cccc3c2C(=O)N(C2CCC(=O)NC2=O)C3=O)CC1 (some centres not stated) | 114 nM |  | 
14 | COc1cc2nc(C)nc(N[C@H](C)c3cccc(C(F)F)c3F)c2cc1OCC1(CN(C)C(=O)CCCCCCNc2cccc3c2C(=O)N(C2CCC(=O)NC2=O)C3=O)CC1 (some centres not stated) | 216 nM | 540 nM | 
15 | COc1cc2nc(C)nc(N[C@H](C)c3cc(N)cc(C(F)(F)F)c3)c2cc1OCC1(CN(C)C(=O)CCCCCCNc2cccc3c2C(=O)N(C2CCC(=O)N(C)C2=O)C3=O)CC1 (some centres not stated) | 1380 nM |  | Not Active
16 | COc1cc2nc(C)nc(N[C@H](C)c3cc(N)cc(C(F)(F)F)c3)c2cc1OCC1(CN(C)C(=O)C2CCN(CCNc3cccc4c3C(=O)N(C3CCC(=O)NC3=O)C4=O)CC2)CC1 (some centres not stated) | 18 nM | 44 nM | 
17 | COc1cc2nc(C)nc(N[C@H](C)c3cc(N)cc(C(F)(F)F)c3)c2cc1OCC1(CN(C)C(=O)CCCCNc2cccc3c2C(=O)N(C2CCC(=O)NC2=O)C3=O)CC1 (some centres not stated) | 86 nM |  | 
18 | COc1cc2nc(C)nc(N[C@H](C)c3cc(N)cc(C(F)(F)F)c3)c2cc1OCC1(CN(C)C(=O)CN2CCC(CN3CCN(c4ccc5c(c4)C(=O)N(C4CCC(=O)NC4=O)C5=O)CC3)CC2)CC1 (some centres not stated) | 1080 nM |  | 

Row | Compound | IC50 (NCI-H358) | DC50 ([1]; read-out: DC50) | DC50 [1]
19 | COc1cc2nc(C)nc(N[C@H](C)c3cc(N)cc(C(F)(F)C(C)(C)O)c3)c2cc1OCC1(CN(C)C(=O)CCCCCCNc2cccc3c2C(=O)N(C2CCC(=O)NC2=O)C3=O)CC1 (some centres not stated) | 220 nM |  | 
20 | COc1cc2nc(C)nc(N[C@H](C)c3cc(N)cc(C(F)(F)F)c3)c2cc1OCC1(CN(C)C(=O)CCCCCC#Cc2cccc3c2C(=O)N(C2CCC(=O)NC2=O)C3=O)CC1 (some centres not stated) | 591 nM |  | 
21 | COc1cc2nc(C)nc(N[C@H](C)c3cc(N)cc(C(F)(F)F)c3)c2cc1OCC1(CN(C)C(=O)CCCOCCNc2cccc3c2C(=O)N(C2CCC(=O)NC2=O)C3=O)CC1 (some centres not stated) | 70 nM |  | 
22 | COc1cc2nc(C)nc(N[C@H](C)c3cc(N)cc(C(F)(F)F)c3)c2cc1OCC1(CN(C)C(=O)C2CCN(C3CCC(Nc4cccc5c4C(=O)N(C4CCC(=O)NC4=O)C5=O)CC3)CC2)CC1 (some centres not stated) | 51 nM | 55 nM | 
23 | COc1cc2nc(C)nc(N[C@H](C)c3cc(N)cc(C(F)(F)F)c3)c2cc1OCC1(CN(C)C(=O)CN2CCC(OC3CCN(c4ccc5c(c4)C(=O)N(C4CCC(=O)NC4=O)C5=O)CC3)CC2)CC1 (some centres not stated) | 814 nM |  | 
24 | COc1cc2nc(C)nc(N[C@H](C)c3cccc(C(F)(F)C(C)(C)O)c3F)c2cc1OCC1(CN(C)C(=O)CCCCCCNc2cccc3c2C(=O)N(C2CCC(=O)NC2=O)C3=O)CC1 (some centres not stated) | 358 nM |  | 
25 | COc1cc2nc(C)nc(N[C@H](C)c3cc(N)cc(C(F)(F)F)c3)c2cc1OCC1(CN(C)C(=O)CCOCCOCCNc2cccc3c2C(=O)N(C2CCC(=O)NC2=O)C3=O)CC1 (some centres not stated) | 421 nM |  | 
26 | COc1cc2nc(C)nc(N[C@H](C)c3cc(N)cc(C(F)(F)F)c3)c2cc1OCC1(CN(C)C(=O)CCOCCNc2cccc3c2C(=O)N(C2CCC(=O)NC2=O)C3=O)CC1 (some centres not stated) | 1660 nM |  | 
27 | COc1cc2nc(C)nc(N[C@H](C)c3cc(N)cc(C(F)(F)F)c3)c2cc1OCC1(CN(C)C(=O)CCNc2cccc3c2C(=O)N(C2CCC(=O)NC2=O)C3=O)CC1 (some centres not stated) | 2890 nM |  | 
28 | COc1cc2nc(C)nc(N[C@H](C)c3cc(N)cc(C(F)(F)F)c3)c2cc1OCC1(CN(C)C(=O)CN2CCN(C3CN(c4ccc5c(c4)C(=O)N(C4CCC(=O)NC4=O)C5=O)C3)CC2)CC1 (some centres not stated) | 1200 nM |  | 
29 | COc1cc2nc(C)nc(N[C@H](C)c3cc(N)cc(C(F)(F)F)c3)c2cc1OCC1(CN(C)C(=O)C2CCN(C(=O)C3CCN(c4ccc5c(c4)C(=O)N(C4CCC(=O)NC4=O)C5=O)CC3)CC2)CC1 (some centres not stated) | 84 nM |  | 
30 | COc1cc2nc(C)nc(N[C@H](C)c3cc(N)cc(C(F)(F)F)c3)c2cc1OCC1(CN(C)C(=O)C2CCN(C3CCN(c4ccc5c(c4)C(=O)N(C4CCC(=O)NC4=O)C5=O)CC3)CC2)CC1 (some centres not stated) | 684 nM |  | 
31 | COc1cc2nc(C)nc(N[C@H](C)c3cc(N)cc(C(F)(F)F)c3)c2cc1OCC1(CN(C)C(=O)C2CCC(N3CCN(c4ccc5c(c4)C(=O)N(C4CCC(=O)NC4=O)C5=O)CC3)CC2)CC1 (some centres not stated) | 1370 nM |  | 
32 | COc1cc2nc(C)nc(N[C@H](C)c3cc(N)cc(C(F)(F)F)c3)c2cc1OCC1(CN(C)C(=O)CCCCCCNc2c(F)ccc3c2C(=O)N(C2CCC(=O)NC2=O)C3=O)CC1 (some centres not stated) | 63 nM |  | 
33 | COc1cc2nc(C)nc(N[C@H](C)c3cc(N)cc(C(F)(F)F)c3)c2cc1OCC1(CN(C)C(=O)CCCCCNc2cccc3c2C(=O)N(C2CCC(=O)NC2=O)C3=O)CC1 (some centres not stated) | 334 nM |  | 
34 | COc1cc2nc(C)nc(N[C@H](C)c3cc(N)cc(C(F)(F)F)c3)c2cc1OCC1(CN(C)C(=O)CCCCCCOc2cccc3c2C(=O)N(C2CCC(=O)NC2=O)C3=O)CC1 (some centres not stated) | 75 nM |  | 
35 | COc1cc2nc(C)nc(N[C@H](C)c3cc(N)cc(C(F)(F)F)c3)c2cc1OCC1(CN(C)C(=O)CCC(=O)N(C)C2CCC(Nc3cccc4c3C(=O)N(C3CCC(=O)NC3=O)C4=O)CC2)CC1 (some centres not stated) | 927 nM |  | 
36 | COc1cc2nc(C)nc(N[C@H](C)c3cc(N)cc(C(F)(F)F)c3)c2cc1OCC1(CN(C)C(=O)COCCNc2cccc3c2C(=O)N(C2CCC(=O)NC2=O)C3=O)CC1 (some centres not stated) | 1380 nM |  | 
